Tested on: Subjects With Active Crohn's Disease
Experiment: [HDL] determination, Study 5 (Crohn's disease)
Type: in vivo, human
Description: Double-Blind, Randomized, Placebo-Controlled, Multi-Centre Study to Investigate the Efficacy and Safety of Compound 1 in Subjects With Active Crohn's Disease With Evidence of Mucosal Ulceration.
This is a double-blind, randomized, placebo-controlled, multi-centre Phase 2 study to investigate the efficacy and safety of Compound 1 administered once daily for the treatment of active CD with evidence of mucosal ulceration. The pharmacokinetics (including a PK substudy) and pharmacodynamics of Compound 1 and metabolite in CD will also be characterised.
A total of 180 eligible subjects will be randomized to receive Compound 1 or placebo in addition to their stable background treatment (eg, corticosteroids, aminosalicylates, or CD-related antibiotics). The study will consist of 2 parts, with total treatment duration of 20 weeks. Randomization in Part 1 will be stratified according the subject's previous anti-TNF exposure/response, CRP level at Screening, and oral corticosteroid use at visit Day −1.
After the first 10 weeks of treatment in Part 1, patients will be re-randomized for Part 2 as shown in the diagram below and will be stratified according to the subject's clinical response, previous anti-TNF exposure/response, and oral corticosteroid use at visit Day −1.
The following assays were conducted at Eurofins Global Central Laboratory, Bergschot 71, 4817 PA Breda, The Netherlands, and at Quest Diagnostics, Clinical Trials, Quest House, 125-135 Staines Road, Hounslow, Middlesex, TW3 3JB, United Kingdom. The assays for Study 5 were performed at BARC Europe, 3B, Industrie Park, Zwijnaarde, B-9052 Ghent, Belgium.
This assay relies on a homogeneous enzymatic colorimetric test. In the presence of magnesium ions, dextran sulfate selectively forms water-soluble complexes with LDL, VLDL and chylomicrons which are resistant to PEG-modified enzymes.
The cholesterol concentration of [HDL]-cholesterol is determined enzymatically by cholesterol esterase and cholesterol oxidase coupled with PEG to the amino groups (approx. 40%).
In the presence of peroxidase, the hydrogen peroxide generated reacts with 4-amino-antipyrine and Sodium N-(2-hydroxy-3-sulfopropyl)-3,5-dimethoxyaniline (HSDA) to form a purple-blue dye. The color intensity of this dye is directly proportional to the cholesterol concentration and is measured photometrically.
Human serum and plasma samples [HDL] determination was done on a Roche/Hitachi Cobas c 701/702 system which automatically calculate the analyte concentration of each sample. Samples containing precipitates are centrifuged before performing the assay.

[1] = 200 mg q.d. continued to week 20; week 2
[2] = 200 mg q.d. continued to week 20; week 4
[3] = 200 mg q.d. continued to week 20; week 6
[4] = 200 mg q.d. continued to week 20; week 10
[5] = 200 mg q.d. continued to week 20; week 12
[6] = 200 mg q.d. continued to week 20; week 16
[7] = 200 mg q.d. continued to week 20; week 20
[8] = 200 mg q.d. week 0 to 10, then 100 mg q.d. (N = 30), week 2
[9] = 200 mg q.d. week 0 to 10, then 100 mg q.d. (N = 30), week 4
[10] = 200 mg q.d. week 0 to 10, then 100 mg q.d. (N = 30), week 6
[11] = 200 mg q.d. week 0 to 10, then 100 mg q.d. (N = 30), week 10
[12] = 200 mg q.d. week 0 to 10, then 100 mg q.d. (N = 30), week 12
[13] = 200 mg q.d. week 0 to 10, then 100 mg q.d. (N = 30), week 16
[14] = 200 mg q.d. week 0 to 10, then 100 mg q.d. (N = 30), week 20
[15] = 200 mg q.d. week 0 to 10, then placebo (N = 23), week 2
[16] = 200 mg q.d. week 0 to 10, then placebo (N = 23), week 4
[17] = 200 mg q.d. week 0 to 10, then placebo (N = 23), week 6
[18] = 200 mg q.d. week 0 to 10, then placebo (N = 23), week 10
[19] = 200 mg q.d. week 0 to 10, then placebo (N = 23), week 12
[20] = 200 mg q.d. week 0 to 10, then placebo (N = 23), week 16
[21] = 200 mg q.d. week 0 to 10, then placebo (N = 23), week 20
[22] = 200 mg q.d. week 0 to 10, to 100 mg q.d. week 10 to 20; week 2

SMILES: O=C(Nc1nc2cccc(-c3ccc(CN4CCS(=O)(=O)CC4)cc3)n2n1)C1CC1 [Compound 1, cyclopropanecarboxylic acid {5-[4-(1,1-dioxo-thiomorpholin-4-ylmethyl)-phenyl]-[1,2,4]triazolo[1,5-a]pyridin-2yl}-amide]
- [HDL] Mean CFB - 10 weeks results (200 mg q.d. (N = 130), week 2): 0.222 mmol/L
- [HDL] Median CFB - 10 weeks results (200 mg q.d. (N = 130), week 2): 0.210 mmol/L
- [HDL] Mean CFB - 10 weeks results (200 mg q.d. (N = 130), week 4): 0.237 mmol/L
- [HDL] Median CFB - 10 weeks results (200 mg q.d. (N = 130), week 4): 0.210 mmol/L
- [HDL] Mean CFB - 10 weeks results (200 mg q.d. (N = 130), week 6): 0.243 mmol/L
- [HDL] Median CFB - 10 weeks results (200 mg q.d. (N = 130), week 6): 0.250 mmol/L
- [HDL] Mean CFB - 10 weeks results (200 mg q.d. (N = 130), week 10): 0.239 mmol/L
- [HDL] Median CFB - 10 weeks results (200 mg q.d. (N = 130), week 10): 0.260 mmol/L
- [HDL] Median CFB - 10 weeks results (200 mg q.d. (N = 130); week 2): 16.867%
- [HDL] Median CFB - 10 weeks results (200 mg q.d. (N = 130); week 4): 15.333%
- [HDL] Median CFB - 10 weeks results (200 mg q.d. (N = 130); week 6): 16.867%
- [HDL] Median CFB - 10 weeks results (200 mg q.d. (N = 130); week 10): 15.789%
- [HDL] Mean CFB - 20 weeks results [1]: 18.29%
- [HDL] Median CFB - 10 weeks results [1]: 17.33%
- [HDL] Mean CFB - 20 weeks results [2]: 15.66%
- [HDL] Median CFB - 10 weeks results [2]: 9.91%
- [HDL] Mean CFB - 20 weeks results [3]: 19.93%
- [HDL] Median CFB - 10 weeks results [3]: 13.98%
- [HDL] Mean CFB - 20 weeks results [4]: 17.97%
- [HDL] Median CFB - 10 weeks results [4]: 12.50%
- [HDL] Mean CFB - 20 weeks results [5]: 16.97%
- [HDL] Median CFB - 10 weeks results [5]: 9.94%
- [HDL] Mean CFB - 20 weeks results [6]: 13.90%
- [HDL] Median CFB - 10 weeks results [6]: 12.22%
- [HDL] Mean CFB - 20 weeks results [7]: 11.15%
- [HDL] Median CFB - 10 weeks results [7]: 10.66%
- [HDL] Mean CFB - 20 weeks results [8]: 0.24 mmol/L
- [HDL] Median CFB - 20 weeks results [8]: 0.22 mmol/L
- [HDL] Mean CFB - 20 weeks results [9]: 0.31 mmol/L
- [HDL] Median CFB - 20 weeks results [9]: 0.22 mmol/L
- [HDL] Mean CFB - 20 weeks results [10]: 0.33 mmol/L
- [HDL] Median CFB - 20 weeks results [10]: 0.31 mmol/L
- [HDL] Mean CFB - 20 weeks results [11]: 0.33 mmol/L
- [HDL] Median CFB - 20 weeks results [11]: 0.26 mmol/L
- [HDL] Mean CFB - 20 weeks results [12]: 0.17 mmol/L
- [HDL] Median CFB - 20 weeks results [12]: 0.15 mmol/L
- [HDL] Mean CFB - 20 weeks results [13]: 0.11 mmol/L
- [HDL] Median CFB - 20 weeks results [13]: 0.03 mmol/L
- [HDL] Mean CFB - 20 weeks results [14]: 0.18 mmol/L
- [HDL] Median CFB - 20 weeks results [14]: 0.16 mmol/L
- [HDL] Mean CFB - 20 weeks results [15]: 0.18 mmol/L
- [HDL] Median CFB - 20 weeks results [15]: 0.18 mmol/L
- [HDL] Mean CFB - 20 weeks results [16]: 0.30 mmol/L
- [HDL] Median CFB - 20 weeks results [16]: 0.39 mmol/L
- [HDL] Mean CFB - 20 weeks results [17]: 0.15 mmol/L
- [HDL] Median CFB - 20 weeks results [17]: 0.16 mmol/L
- [HDL] Mean CFB - 20 weeks results [18]: 0.16 mmol/L
- [HDL] Median CFB - 20 weeks results [18]: 0.24 mmol/L
- [HDL] Mean CFB - 20 weeks results [19]: -0.12 mmol/L
- [HDL] Median CFB - 20 weeks results [19]: -0.03 mmol/L
- [HDL] Mean CFB - 20 weeks results [20]: -0.18 mmol/L
- [HDL] Median CFB - 20 weeks results [20]: -0.05 mmol/L
- [HDL] Mean CFB - 20 weeks results [21]: -0.21 mmol/L
- [HDL] Median CFB - 20 weeks results [21]: -0.08 mmol/L
- [HDL] Mean CFB - 20 weeks results [22]: 20.28%
- [HDL] Median CFB - 10 weeks results [22]: 17.11%
